# “And” between values parts separate entries of the source, which are not always exact repeats. Identical values can stand only once. Like-named read-outs stand apart in the source and are kept apart here.
# How the values were obtained:
# [1] = tested on: patients with primary CNS and advanced solid tumors; assay: Phase I dose-escalation trial of oral AR-42: safety and tolerability; type: in vivo
# [2] = tested on: primary CNS and advanced solid tumors; assay: Phase I trial: response evaluation; type: in vivo, human
# [3] = Plasma pharmacokinetics, LC-MS/MS, non-compartmental analysis; type: in vivo, human; conditions: for AUC / Cmax: oral; for AUC: Median AUC; for Cmax: Median Cmax
# [4] = cited from earlier work
# [5] = tested on: Burkitt lymphoma mouse models; conditions: cited from earlier work
# [6] = tested on: xenograft and allograft schwannoma; conditions: cited from earlier work
# [7] = tested on: schwannoma and meningioma cell lines; conditions: cited from earlier work
# [8] = tested on: patients with multiple myeloma and T- and B-cell lymphomas; conditions: cited from earlier work
# [9] = human, plasma, patients without grade 3 or 4 toxicity
compound,measurement,setting,value
CC(C)[C@H](C(=O)Nc1ccc(C(=O)NO)cc1)c1ccccc1 [AR-42],"Nausea, treatment-related adverse event, Grade 1–2","[1]; N=17, 30-80 mg",8 (47.1%) n (%)
same,"Nausea, treatment-related adverse event, Grade 3–4","[1]; N=17, 30-80 mg",2 (11.8%) n (%)
same,"Neutropenia, treatment-related adverse event, All grades","[1]; N=17, 30-80 mg",7 n (%) and 7 (41.2%) n (%)
same,"Neutropenia, treatment-related adverse event, Grade 1–2","[1]; N=17, 30-80 mg",7 (41.2%) n (%)
same,"Psychiatric disorder, treatment-related adverse event, All grades","[1]; N=17, 30-80 mg",1 (5.9%) n (%)
same,"Psychiatric disorder, treatment-related adverse event, Grade 3–4","[1]; N=17, 30-80 mg",1 (5.9%) n (%)
same,"Thrombocytopenia, treatment-related adverse event, All grades","[1]; N=17, 30-80 mg",13 (76.5%) n (%)
same,"Thrombocytopenia, treatment-related adverse event, Grade 1–2","[1]; N=17, 30-80 mg",8 (47.1%) n (%)
same,"Thrombocytopenia, treatment-related adverse event, Grade 3–4","[1]; N=17, 30-80 mg",5 (29.4%) n (%)
same,"Thromboembolic event, treatment-related adverse event, All grades","[1]; N=17, 30-80 mg",1 (5.9%) n (%)
same,"Thromboembolic event, treatment-related adverse event, Grade 3–4","[1]; N=17, 30-80 mg",1 (5.9%) n (%)
same,"Vomiting, treatment-related adverse event, All grades","[1]; N=17, 30-80 mg",4 (23.5%) n (%)
same,"Vomiting, treatment-related adverse event, Grade 1–2","[1]; N=17, 30-80 mg",4 (23.5%) n (%)
same,"Weight loss, treatment-related adverse event, All grades","[1]; N=17, 30-80 mg",3 (17.6%) n (%)
same,"Weight loss, treatment-related adverse event, Grade 1–2","[1]; N=17, 30-80 mg",2 (11.8%) n (%)
same,"Weight loss, treatment-related adverse event, Grade 3–4","[1]; N=17, 30-80 mg",1 (5.9%) n (%)
same,Only grade 4 TRAE,[1]; at the 80 mg dose,psychosis
same,No. of dose delays,"[1]; dose level 1A, 30 mg",0
same,No. of dose reductions,"[1]; dose level 1A, 30 mg",0
same,Description of DLT,"[1]; dose level 1B, 60 mg",Thrombocytopenia (grade 3)
same,No. of dose delays,"[1]; dose level 1B, 60 mg",4
same,No. of dose reductions,"[1]; dose level 1B, 60 mg",2
same,No. of patients with a DLT,"[1]; dose level 1B, 60 mg, 7 patients",1
same,No. of dose delays,"[1]; dose level 2A, 60 mg",0
same,No. of dose reductions,"[1]; dose level 2A, 60 mg",0
same,No. of patients with a DLT,"[1]; dose level 2A, 60 mg, 2 patients",0
same,No. of dose delays,"[1]; dose level 2B, 80 mg",0
same,No. of dose reductions,"[1]; dose level 2B, 80 mg",0
same,No. of patients with a DLT,"[1]; dose level 2B, 80 mg, 2 patients",1
same,Patients who developed a grade 4 toxicity,"[1]; during cycle one, N=17",5.9%
same,Patients who developed at most a grade 1 toxicity,"[1]; during cycle one, N=17",23.5%
same,Patients who developed at most a grade 2 toxicity,"[1]; during cycle one, N=17",29.4%
same,Patients who developed at most a grade 3 toxicity,"[1]; during cycle one, N=17",29.4%
same,Patients who experienced no toxicities,"[1]; during cycle one, N=17",11.8%
same,No. of dose delays,"[1]; expansion cohort, 60 mg",0
same,No. of dose reductions,"[1]; expansion cohort, 60 mg",0
same,Grade 4 thrombocytopenia,[1]; in vivo,no grade 4 thrombocytopenia
same,Recommended phase II dose (RP2D),"[1]; oral, three times weekly, three weeks of a 28-day cycle",60 mg
same,Clinically significant bleeding events,[1]; with thrombocytopenia,no clinically significant bleeding events
same,Stable disease,[2]; 30 mg,1 of 3
same,Stable disease,[2]; 60 mg,7 of 11
same,Follow up without progression,[2]; 1 of 5 patients with NF2 or meningioma,> 27 months
same,"Best response stable disease, proportion of patients","[2]; 15 evaluable patients, 95% CI 26.6–78.7",53%
same,Stable disease,[2]; all evaluable patients,8 of 15
same,Median PFS,"[2]; evaluable NF2 or meningioma (n=5), 60 mg, 95% CI 1.9-not reached",9.1 months
same,Median PFS,"[2]; non-CNS solid tumors (n=10), 95% CI 0.1–5.0",1.7 months
same,Median PFS,"[2]; overall cohort, 95% CI 1.2–9.1",3.6 months
same,Accumulation,[3]; 3 times weekly for three weeks of a four-week cycle,did not accumulate
same,"Cmax, AUC0–24 and AUC0–∞ between Day 1 and Day 19",[3]; cycle 1,remained consistent
same,AUC,"[3]; human, plasma, patients with a grade 3 or 4 toxicity during cycle 1 and 2, p=0.036",16.4 µM·h
same,AUC,[3]; [9],11.3 µM·h
same,Cmax,"[3]; human, plasma, patients with a grade 3 or 4 toxicity during cycle 1 and 2, p=0.0016",1540 nM
same,Cmax,[3]; [9],1040 nM
same,half-life,"[3]; human, plasma, po",8 to 13 h
same,AUC0–24 and AUC0–∞ higher in 80 mg dose group compared to 60 mg dose group,[3]; only two patients at 80 mg,roughly 50%
same,Median CL/F,"[3]; patients with a grade 3 or 4 toxicity during cycle 1 and 2, p=0.0745",10.48 L/h
same,Median CL/F,[3]; patients without grade 3 or 4 toxicity,15.8 L/h
same,Blood brain barrier penetration,[4]; mouse model,crossed the blood brain barrier
same,Blood brain barrier penetration,[4]; rodents,penetrates the blood brain barrier
same,Activity compared with vorinostat,[5],superior to that of vorinostat
same,Schwannoma growth,[6],suppressed peripherally implanted xenograft and allograft schwannoma growth
same,Proliferation of schwannoma and meningioma cell lines,[7]; cell cycle arrest at G2 and apoptosis,suppressed proliferation
same,AKT phosphorylation,[7],decreased AKT phosphorylation
same,Mean QTc change,[8]; patients with grade 1 QTc prolongation,27.4 ms
same,Grade 1 QTc prolongation,[8]; phase I study in hematologic malignancies,8 of 27
same,Thrombocytopenia,[8]; phase I trial in hematologic malignancies,16 of 27
same,Maximum tolerated dose (MTD),[8]; three times weekly for three weeks of a 28-day cycle,40 mg
